Values of other authors as cited in patent US20220312825A1 (priority 2021, published 2022).

Conditions: free base (non-protonated)

SMILES: CN1CCCC1c1cccnc1 (stereo not shown) [Free-base nicotine, 3-(1-methyl-2-pyrrolidinyl) pyridine]
- pKa value: about 8
